Assay results from ChEMBL document CHEMBL1201861, “Genomics of Drug Sensitity in Cancer screening data, Wellcome Trust Sanger Institute”.

Assays:
Assay in all cases: cells
[1] = tested on: LS-1034; format: functional, cell-based, Homo sapiens; details: Homo sapiens, LS-1034
Description: SANGER: Inhibition of human LS-1034 cell growth in a cell viability assay.

[2] = tested on: BE-13; format: functional, cell-based, Homo sapiens; details: Homo sapiens, BE-13;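 further: growth inhibition of human BE-13 cells, measured with a cell viability assay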
Description: SANGER: Inhibition of human BE-13 cell growth in a cell viability assay.

[3] = tested on: NCI-H1155; format: functional, cell-based, Homo sapiens; details: Homo sapiens, NCI-H1155;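 further: cell growth inhibition measured by a viability assay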
Description: SANGER: Inhibition of human NCI-H1155 cell growth in a cell viability assay.

[4] = tested on: SK-PN-DW; format: functional, cell-based, Homo sapiens; details: Homo sapiens, SK-PN-DW;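 further: growth inhibition measured with a viability assay on these cells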
Description: SANGER: Inhibition of human SK-PN-DW cell growth in a cell viability assay.

[5] = tested on: OCI-AML2; format: functional, cell-based, Homo sapiens; details: Homo sapiens, OCI-AML2;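 further: growth inhibition of OCI-AML2 cells, read out with a cell viability assay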
Description: SANGER: Inhibition of human OCI-AML2 cell growth in a cell viability assay.

[6] = tested on: LB1047-RCC; format: functional, cell-based, Homo sapiens; details: Homo sapiens, LB1047-RCC;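 further: inhibition of cell growth, determined with a cell viability assay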
Description: SANGER: Inhibition of human LB1047-RCC cell growth in a cell viability assay.

[7] = tested on: TE-1; format: functional, cell-based, Homo sapiens; details: Homo sapiens, TE-1;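 further: growth inhibition of the human TE-1 cell line, read out with a cell viability assay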
Description: SANGER: Inhibition of human TE-1 cell growth in a cell viability assay.

[8] = tested on: A704; format: functional, cell-based, Homo sapiens; details: Homo sapiens, A704;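 further: growth inhibition of human A704 cells, read out with a cell viability assay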
Description: SANGER: Inhibition of human A704 cell growth in a cell viability assay.

[9] = tested on: RXF 393; format: functional, cell-based, Homo sapiens; details: Homo sapiens, RXF 393;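 further: growth inhibition of human RXF 393 cells, read out with a cell viability assay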
Description: SANGER: Inhibition of human RXF393 cell growth in a cell viability assay.

[10] = tested on: A498; format: functional, cell-based, Homo sapiens; details: Homo sapiens, A498;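 further: growth inhibition of human A498 cells, read out with a cell viability assay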
Description: SANGER: Inhibition of human A498 cell growth in a cell viability assay.

[11] = tested on: MV4-11; format: functional, cell-based, Homo sapiens, MV-4-11; details: Homo sapiens, MV4-11;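 further: cell viability readout measuring growth inhibition of human MV-4-11 cells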
Description: SANGER: Inhibition of human MV-4-11 cell growth in a cell viability assay.

[12] = tested on: OS-RC-2; format: functional, cell-based, Homo sapiens; details: Homo sapiens, OS-RC-2;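 further: growth inhibition of human OS-RC-2 cells, measured by a cell viability assay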
Description: SANGER: Inhibition of human OS-RC-2 cell growth in a cell viability assay.

[13] = tested on: U-266; format: functional, cell-based, Homo sapiens; details: Homo sapiens, U-266
Description: SANGER: Inhibition of human U-266 cell growth in a cell viability assay.

[14] = tested on: ES3; format: functional, cell-based, Homo sapiens; details: Homo sapiens, ES3;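 further: growth inhibition of ES3 cells, read out with a cell viability assay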
Description: SANGER: Inhibition of human ES3 cell growth in a cell viability assay.

[15] = tested on: A4-Fuk; format: functional, cell-based, Homo sapiens; details: Homo sapiens, A4-Fuk;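 further: growth inhibition of A4-Fuk cells, read out by a cell viability assay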
Description: SANGER: Inhibition of human A4-Fuk cell growth in a cell viability assay.

[16] = tested on: NCI-H1770; format: functional, cell-based, Homo sapiens; details: Homo sapiens, NCI-H1770;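 further: growth inhibition of NCI-H1770 cells determined with a viability readout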
Description: SANGER: Inhibition of human NCI-H1770 cell growth in a cell viability assay.

[17] = tested on: D-502MG; format: functional, cell-based, Homo sapiens; details: Homo sapiens, D-502MG
Description: SANGER: Inhibition of human D-502MG cell growth in a cell viability assay.

[18] = tested on: BB65-RCC; format: functional, cell-based, Homo sapiens; details: Homo sapiens, BB65-RCC;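 further: growth inhibition of the cell line, measured with a cell viability assay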
Description: SANGER: Inhibition of human BB65-RCC cell growth in a cell viability assay.

[19] = tested on: EM-2; format: functional, cell-based, Homo sapiens; details: Homo sapiens, EM-2;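 further: growth inhibition of EM-2 cells, read out with a cell viability assay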
Description: SANGER: Inhibition of human EM-2 cell growth in a cell viability assay.

[20] = tested on: LB2518-MEL; format: functional, cell-based, Homo sapiens; details: Homo sapiens, LB2518-MEL;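 further: growth inhibition of human LB2518-MEL cells, measured with a cell viability assay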
Description: SANGER: Inhibition of human LB2518-MEL cell growth in a cell viability assay.

[21] = tested on: SW 954; format: functional, cell-based, Homo sapiens; details: Homo sapiens, SW 954;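 further: growth inhibition of SW954 human cancer cells, read out as cell viability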
Description: SANGER: Inhibition of human SW954 cell growth in a cell viability assay.

[22] = tested on: MOLT-4; format: functional, cell-based, Homo sapiens; details: Homo sapiens, MOLT-4;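 further: growth inhibition of MOLT-4 cells, determined with a cell viability readout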
Description: SANGER: Inhibition of human MOLT-4 cell growth in a cell viability assay.

[23] = tested on: LU-134-A; format: functional, cell-based, Homo sapiens; details: Homo sapiens, LU-134-A
Description: SANGER: Inhibition of human LU-134-A cell growth in a cell viability assay.

[24] = tested on: DMS-114; format: functional, cell-based, Homo sapiens; details: Homo sapiens, DMS-114
[25] = tested on: GR-ST; format: functional, cell-based, Homo sapiens; details: Homo sapiens, GR-ST
Description: SANGER: Inhibition of human GR-ST cell growth in a cell viability assay.

[26] = tested on: SNU-C2B; format: functional, cell-based, Homo sapiens; details: Homo sapiens, SNU-C2B;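 further: cell viability readout used to measure compound-driven suppression of SNU-C2B cell proliferation, IC50 marking half-maximal growth inhibition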
Description: SANGER: Inhibition of human SNU-C2B cell growth in a cell viability assay.

[27] = tested on: 697; format: functional, cell-based, Homo sapiens; details: Homo sapiens
Description: SANGER: Inhibition of human 697 cell growth in a cell viability assay.

[28] = tested on: MC116; format: functional, cell-based, Homo sapiens; details: Homo sapiens, MC116;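 further: growth inhibition of MC116 cells, read out with a cell viability assay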
Description: SANGER: Inhibition of human MC116 cell growth in a cell viability assay.

[29] = tested on: LB2241-RCC; format: functional, cell-based, Homo sapiens; details: Homo sapiens, LB2241-RCC;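 further: cell viability assay measuring how strongly the cultured human renal carcinoma line is prevented from growing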
Description: SANGER: Inhibition of human LB2241-RCC cell growth in a cell viability assay.

[30] = tested on: GT3TKB; format: functional, cell-based, Homo sapiens; details: Homo sapiens, GT3TKB;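 further: growth inhibition of the cell line, read out with a cell viability assay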
Description: SANGER: Inhibition of human GT3TKB cell growth in a cell viability assay.

[31] = tested on: LXF-289 cell line; format: functional, cell-based, Homo sapiens; details: Homo sapiens, LXF-289
Description: SANGER: Inhibition of human LXF-289 cell growth in a cell viability assay.

[32] = tested on: SK-NEP-1; format: functional, cell-based, Homo sapiens; details: Homo sapiens, SK-NEP-1;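 further: growth inhibition of human SK-NEP-1 cells, read out by a cell viability assay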
Description: SANGER: Inhibition of human SK-NEP-1 cell growth in a cell viability assay.

[33] = tested on: RH-1; format: functional, cell-based, Homo sapiens; details: Homo sapiens, RH-1;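 further: growth inhibition of human RH-1 cells, read out with a cell viability assay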
Description: SANGER: Inhibition of human RH-1 cell growth in a cell viability assay.

[34] = tested on: HuTu80; format: functional, cell-based, Homo sapiens, HUTU-80; details: Homo sapiens, HuTu80;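 further: growth inhibition of HuTu80 human cells, determined with a cell viability readout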
Description: SANGER: Inhibition of human HUTU-80 cell growth in a cell viability assay.

[35] = tested on: HT; format: functional, cell-based, Homo sapiens; details: Homo sapiens, HT
Description: SANGER: Inhibition of human HT cell growth in a cell viability assay.

[36] = tested on: Mo; format: functional, cell-based, Homo sapiens; details: Homo sapiens, Mo
Description: SANGER: Inhibition of human Mo-T cell growth in a cell viability assay.

[37] = tested on: HAL-01; format: functional, cell-based, Homo sapiens; details: Homo sapiens, HAL-01;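 further: growth inhibition of human HAL-01 cells, read out with a cell viability assay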
Description: SANGER: Inhibition of human HAL-01 cell growth in a cell viability assay.

[38] = tested on: SK-MEL-1; format: functional, cell-based, Homo sapiens; details: Homo sapiens, SK-MEL-1;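 further: growth inhibition of human SK-MEL-1 cells, read out by a cell viability assay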
Description: SANGER: Inhibition of human SK-MEL-1 cell growth in a cell viability assay.

[39] = tested on: Ramos-2G6-4C10; format: functional, cell-based, Homo sapiens; details: Homo sapiens, Ramos-2G6-4C10;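 further: growth inhibition of the cell line, measured by a cell viability read-out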
Description: SANGER: Inhibition of human Ramos-2G6-4C10 cell growth in a cell viability assay.

[40] = tested on: MLMA; format: functional, cell-based, Homo sapiens; details: Homo sapiens, MLMA;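 further: growth inhibition of MLMA cells (human), determined through a cell viability readout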
Description: SANGER: Inhibition of human MLMA cell growth in a cell viability assay.

[41] = tested on: NCI-H23; format: functional, cell-based, Homo sapiens; details: Homo sapiens, NCI-H23;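 further: cell viability assay measuring growth inhibition of NCI-H23 cells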
Description: SANGER: Inhibition of human NCI-H23 cell growth in a cell viability assay.

[42] = tested on: KMOE-2; format: functional, cell-based, Homo sapiens; details: Homo sapiens, KMOE-2;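 further: growth inhibition of human KMOE-2 cells, read out with a cell viability assay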
Description: SANGER: Inhibition of human KMOE-2 cell growth in a cell viability assay.

[43] = tested on: EW-3; format: functional, cell-based, Homo sapiens; details: Homo sapiens, EW-3;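 further: cell viability assay read-out, IC50 reflects inhibition of growth of the EW-3 cells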
Description: SANGER: Inhibition of human EW-3 cell growth in a cell viability assay.

[44] = tested on: CAS-1; format: functional, cell-based, Homo sapiens; details: Homo sapiens, CAS-1;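 further: growth inhibition of CAS-1 cells, measured with a cell viability assay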
Description: SANGER: Inhibition of human CAS-1 cell growth in a cell viability assay.

[45] = tested on: MEG-01; format: functional, cell-based, Homo sapiens; details: Homo sapiens, MEG-01;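 further: growth inhibition of MEG-01 cells, read out by a cell viability assay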
Description: SANGER: Inhibition of human MEG-01 cell growth in a cell viability assay.

[46] = tested on: SF-539; format: functional, cell-based, Homo sapiens; details: Homo sapiens, SF-539;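 further: Read-out is a cell viability assay, with IC50 reflecting inhibition of cell growth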
Description: SANGER: Inhibition of human SF539 cell growth in a cell viability assay.

[47] = tested on: HCE-T; format: functional, cell-based, Homo sapiens; details: Homo sapiens, HCE-T;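 further: cell viability assay read-out, reporting inhibition of HCE-T cell growth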
Description: SANGER: Inhibition of human HCE-T cell growth in a cell viability assay.

[48] = tested on: SH-4; format: functional, cell-based, Homo sapiens; details: Homo sapiens, SH-4;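 further: growth inhibition of SH-4 cells, read out with a cell viability assay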
Description: SANGER: Inhibition of human SH-4 cell growth in a cell viability assay.

SMILES: Nc1cccc2c1CN(C1CCC(=O)NC1=O)C2=O (stereo unspecified) [LENALIDOMIDE]
- IC50 [1]: > 5 µM
- IC50 [2]: > 0.005 mM
- IC50 [3]: > 0.005 mM
- IC50 [4]: > 5 µM
- IC50 [5]: > 5 µM
- IC50 [6]: > 0.005 mM
- IC50 [7]: > 5 µM
- IC50 [8]: > 5 µM
- IC50 [9]: > 5 µM
- IC50 [10]: > 5 µM
- IC50 [11]: > 0.005 mM
- IC50 [12]: > 0.005 mM
- IC50 [13]: > 5 µM
- IC50 [14]: > 0.005 mM
- IC50 [15]: > 5 µM
- IC50 [16]: > 0.005 mM
- IC50 [17]: > 5 µM
- IC50 [18]: > 5 µM
- IC50 [19]: > 5 µM
- IC50 [20]: > 5 µM
- IC50 [21]: > 5 µM
- IC50 [22]: > 5 µM
- IC50 [23]: > 0.005 mM
- IC50 [24]: > 5 µM
- IC50 [25]: > 5 µM
- IC50 [26]: > 5 µM
- IC50 [27]: > 0.005 mM
- IC50 [28]: > 5 µM
- IC50 [29]: > 5 µM
- IC50 [30]: > 5 µM
- IC50 [31]: > 0.005 mM
- IC50 [32]: > 0.005 mM
- IC50 [33]: > 5 µM
- IC50 [34]: > 5 µM
- IC50 [35]: > 0.005 mM
- IC50 [36]: > 5 µM
- IC50 [37]: > 5 µM
- IC50 [38]: > 0.005 mM
- IC50 [39]: > 5 µM
- IC50 [40]: > 5 µM
- IC50 [41]: > 0.005 mM
- IC50 [42]: > 5 µM
- IC50 [43]: > 0.005 mM
- IC50 [44]: > 5 µM
- IC50 [45]: > 0.005 mM
- IC50 [46]: > 5 µM
- IC50 [47]: > 5000 nM
- IC50 [48]: > 5 µM

SMILES: CN(C)C(=N)NC(=N)N [METFORMIN]
- IC50 [1]: > 20000 µM
- IC50 [2]: 18 mM
- IC50 [3]: 17.7 mM
- IC50 [5]: > 20000 µM
- IC50 [6]: 16.4 mM
- IC50 [7]: > 20000 µM
- IC50 [9]: > 20000 µM
- IC50 [10]: > 20000 µM
- IC50 [11]: 8.43 mM
- IC50 [12]: 13 mM
- IC50 [13]: > 20000 µM
- IC50 [14]: 16.9 mM
- IC50 [15]: > 20000 µM
- IC50 [16]: 4.1 mM
- IC50 [17]: > 20000 µM
- IC50 [20]: > 20000 µM
- IC50 [21]: > 20000 µM
- IC50 [22]: > 20000 µM
- IC50 [23]: 13 mM
- IC50 [24]: > 20000 µM
- IC50 [25]: > 20000 µM
- IC50 [26]: > 20000 µM
- IC50 [27]: 6.5 mM
- IC50 [28]: > 20000 µM
- IC50 [29]: > 20000 µM
- IC50 [30]: > 20000 µM
- IC50 [31]: 12 mM
- IC50 [32]: 15 mM
- IC50 [34]: > 20000 µM
- IC50 [35]: 11.9 mM
- IC50 [36]: > 20000 µM
- IC50 [37]: > 20000 µM
- IC50 [38]: 11.8 mM
- IC50 [39]: > 20000 µM
- IC50 [40]: > 20000 µM
- IC50 [41]: 17.1 mM
- IC50 [42]: > 20000 µM
- IC50 [43]: 12.2 mM
- IC50 [45]: 8.62 mM
- IC50 [46]: > 20000 µM
- IC50 [48]: > 20000 µM

SMILES: CS(=O)(=O)c1ccc(C(=O)Nc2ccc(Cl)c(-c3ccccn3)c2)c(Cl)c1 [VISMODEGIB]
- IC50 [1]: > 10 µM
- IC50 [2]: > 0.01 mM
- IC50 [3]: > 0.01 mM
- IC50 [4]: > 10 µM
- IC50 [5]: > 10 µM
- IC50 [6]: > 0.01 mM
- IC50 [7]: > 10 µM
- IC50 [8]: > 10 µM
- IC50 [9]: > 10 µM
- IC50 [10]: > 10 µM
- IC50 [11]: > 0.01 mM
- IC50 [12]: > 0.01 mM
- IC50 [13]: > 10 µM
- IC50 [14]: > 0.01 mM
- IC50 [15]: > 10 µM
- IC50 [16]: > 0.01 mM
- IC50 [17]: > 10 µM
- IC50 [18]: > 10 µM
- IC50 [19]: > 10 µM
- IC50 [20]: > 10 µM
- IC50 [21]: > 10 µM
- IC50 [22]: > 10 µM
- IC50 [23]: > 0.01 mM
- IC50 [24]: > 10 µM
- IC50 [25]: > 10 µM
- IC50 [26]: > 10 µM
- IC50 [27]: > 0.01 mM
- IC50 [28]: > 10 µM
- IC50 [29]: > 10 µM
- IC50 [30]: > 10 µM
- IC50 [31]: > 0.01 mM
- IC50 [32]: > 0.01 mM
- IC50 [33]: > 10 µM
- IC50 [34]: > 10 µM
- IC50 [35]: > 0.01 mM
- IC50 [36]: > 10 µM
- IC50 [37]: > 10 µM
- IC50 [38]: > 0.01 mM
- IC50 [39]: > 10 µM
- IC50 [40]: > 10 µM
- IC50 [41]: > 0.01 mM
- IC50 [42]: > 10 µM
- IC50 [44]: > 10 µM
- IC50 [45]: > 0.01 mM
- IC50 [46]: > 10 µM
- IC50 [47]: 1320 nM
- IC50 [48]: > 10 µM
